Data from ChEMBL document CHEMBL4392871, “Baraphenazines A-G, Divergent Fused Phenazine-Based Metabolites from a Himalayan Streptomyces” (J Nat Prod, 2019).
≈ marks a conversion by molar mass, not a printed value.

What was measured:
Bacillus subtilis = test: Antimicrobial activity against Bacillus subtilis ATCC 6633 incubated for 16 to 48 hrs; type: functional
Salmonella enterica = test: Antimicrobial activity against Salmonella enterica ATCC 10708 incubated for 16 to 48 hrs; type: functional
Micrococcus luteus = test: Antimicrobial activity against Micrococcus luteus NRRL B-287 incubated for 16 to 48 hrs; type: functional
A549 = test: Cytotoxicity in human A549 cells assessed as reduction in cell viability incubated for 48 hrs; type: functional, cell-based; details: A549, 48 h
Saccharomyces cerevisiae = test: Antimicrobial activity against Saccharomyces cerevisiae ATCC 204508 incubated for 16 to 48 hrs; type: functional
Staphylococcus aureus = test: Antimicrobial activity against Staphylococcus aureus ATCC 6538 incubated for 16 to 48 hrs; type: functional
Escherichia coli = test: Antimicrobial activity against Escherichia coli NRRL B-3708 incubated for 16 to 48 hrs; type: functional
Ambystoma mexicanum = test: Toxicity in axolotl at <=10 uM by embryo tail regeneration assay; type: organism-based; details: in vivo
Mycolicibacterium aurum = test: Antimicrobial activity against Mycobacterium aurum ATCC 23366 incubated for 16 to 48 hrs; type: functional
PC-3 = test: Cytotoxicity in human PC3 cells assessed as reduction in cell viability incubated for 48 hrs; type: functional, cell-based; details: PC-3, 48 h

Row | SMILES | MIC (Bacillus subtilis) [µM] | MIC (Salmonella enterica) [µM] | MIC (Micrococcus luteus) [µM] | IC50 (A549) [µM] | MIC (Saccharomyces cerevisiae) [µM] | MIC (Staphylococcus aureus) [µM] | MIC (Escherichia coli) [µM] | Activity (Ambystoma mexicanum) | MIC (Mycolicibacterium aurum) [µM] | IC50 (PC-3) [µM]
1 | O=C(O)c1ccc(O)c2nc3c4c(ccc3nc12)[C@@H]1Cc2nc3cccc(O)c3nc2[C@H](O4)[C@H]1O | > 120 | > 120 | > 120 | > 50 | > 120 | > 120 | > 120 | Non-Toxic | > 120 | > 50
2 | O=C(O)C1(O)O[C@@H]2[C@@H](Cc3nc4c(O)cccc4nc3[C@@H]2O)[C@H]1c1ccc(O)cc1 (stereo not given in full) | > 120 | > 120 | > 120 | > 50 | > 120 | > 120 | > 120 | Non-Toxic | > 120 | > 50
3 | O=C(O)C1(O)O[C@@H]2[C@@H](Cc3nc4c(O)cccc4nc3[C@H]2O)[C@H]1c1c[nH]c2ccccc12 (stereo not given in full) | > 120 | > 120 | > 120 | > 50 | > 120 | > 120 | > 120 | Non-Toxic | > 120 | > 50
4 | O=C(O)c1cc2c(c3nc4cccc(O)c4nc13)[C@@H]1Cc3nc4cccc(O)c4nc3[C@@](O)(C1)O2 | > 120 | > 120 | > 120 | > 50 | > 120 | > 120 | > 120 | Non-Toxic | > 120 | > 50
5 | O=C(O)c1cccc2nc3c4c(ccc3nc12)[C@H]1c2nc3c(O)cccc3nc2C[C@@H]4[C@H]1O | > 120 | > 120 | > 120 | > 50 | > 120 | > 120 | > 120 | Non-Toxic | > 120 | > 50
6 | O=C(O)C1(O)O[C@@H]2[C@@H](Cc3nc4c(O)cccc4nc3[C@@H]2O)[C@H]1c1c[nH]c2ccccc12 (stereo not given in full) | > 120 | > 120 | > 120 | > 50 | > 120 | > 120 | > 120 | Non-Toxic | > 120 | > 50
7 | NC(=O)c1cccc2nc3c4c(ccc3nc12)[C@H]1c2nc3c(O)cccc3nc2C[C@@H]4[C@@H]1O | 7.5 (≈ 3.27 µg/mL) | > 120 | 7.5 (≈ 3.27 µg/mL) | 2.4 | > 120 | 4 (≈ 1.74 µg/mL) | > 120 | Non-Toxic | 30 (≈ 13.1 µg/mL) | 4.7
